One experiment has as its system SSTR2 Y302A mutant. On the set-up: method as in earlier work. Particulars: Y302(7.43)A; ref 20 of peer review file (Zhao, W. et al., 2022); cited from earlier work.
The test system of the next experiment is acromegalic patients. Particulars: cited from earlier work. From the text: Somatostatin receptors (SSTRs) are members of the G protein-coupled receptor (GPCR) superfamily and contain five subtypes (SSTR1–5). SSTRs, especially SSTR2, are expressed at high levels in NETs and have emerged as important biomarkers[4],[6]. SSTRs and their endogenous ligands, somatostatin (SST) peptides, exert important physiological regulation of neuroendocrine functions. […] However, the use of SST for disease treatment is li ... || SSTR2 transmits extracellular signals into cells through Gαi/o coupling and β-arrestin recruitment pathways. cAMP inhibition causes decreased hormone secretion and cell proliferation[13],[14], while the β-arrestin recruitment results in subsequent receptor internalization thus influence the cell membrane distribution level and desensitization of SSTR2, which may lead to drug resistance and poor clinical curative effect[15]–[18].

The target in experiment [1] is SSTR2 mutants (Homo sapiens, UniProt P30874, R140A). The experiment is described as follows: cell-based.
Chain of SSTR2 mutants (Homo sapiens, UniProt P30874, R140A) (P30874 whole entry R140A): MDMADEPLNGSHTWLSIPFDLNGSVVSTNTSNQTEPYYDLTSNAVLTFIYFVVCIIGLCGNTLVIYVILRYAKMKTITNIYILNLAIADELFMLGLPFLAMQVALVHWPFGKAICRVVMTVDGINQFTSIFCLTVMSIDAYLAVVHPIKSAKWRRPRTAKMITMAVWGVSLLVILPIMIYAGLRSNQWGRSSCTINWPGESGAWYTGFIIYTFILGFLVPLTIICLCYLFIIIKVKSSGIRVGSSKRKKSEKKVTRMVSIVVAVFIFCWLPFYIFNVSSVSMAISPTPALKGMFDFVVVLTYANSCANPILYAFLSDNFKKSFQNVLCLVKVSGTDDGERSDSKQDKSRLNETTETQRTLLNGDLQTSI
Experimental: (§2) Wild-type or mutant SSTR2, β-arrestin 1-Nluc and FYVE-mVenus were co-transfected in HEK293 cells at a ratio of 1:0.5:4 on six-well plates. The next day, the transfected cells were plated on white 96-well and incubated overnight, and then cells were incubated with 90 µL HBSS containing 20 mM HEPES and coelenterazine h (5 µM) at room temperature for 40 min. After incubation, ligand was added and the signal was measured using the Synergy H1 microplate reader (BioTek) to determine a BRET ratio.
The target of experiment [2] is SSTR2 mutants (Homo sapiens, UniProt P30874, Y312A). The experiment is described as follows: cell-based.
Chain of SSTR2 mutants (Homo sapiens, UniProt P30874, Y312A) (P30874 whole entry Y312A): as the sequence (P30874 whole entry R140A) above, with A140R, Y312A counted along it
Experimental: as §2
In experiment [3] the target is T1, SSTR2 mutants (Homo sapiens, UniProt P30874, L99A).
T1 construct: The human full-length SSTRs and mutants were cloned into the pcDNA3.1+ vector; expressed in transfected cells; host or cells: HEK293 (ATCC, CRL-1573)
T1 sequence (P30874 whole entry L99A): as the sequence (P30874 whole entry R140A) above, with L99A, A140R counted along it
The experiment is described as follows: SSTRs Gi-mediated cAMP inhibition, GloSensor, HEK293, 5 μM forskolin, 15 min room temperature (SSTR2 mutants). On the set-up: Best-fit Bottom, cAMP inhibition / Best-fit Top, cAMP inhibition / Span, cAMP inhibition / Bottom (best-fit value) / Top (best-fit value) / Span (best-fit value) / Span (best-fit) / Bottom (best-fit) / Top (best-fit) / Best-fit Bottom / Best-fit Top / Best-fit Span / Top / Span: scale not given here. The format is cell-based. The settings on record: L99A, best-fit, runs 1-3. On the procedure: (§1) The levels of the intracellular 3′, 5′-cyclic AMP (cAMP) were measured by the GloSensor cAMP assay (Promega) as described in the previous studies[28],[41] which has been widely used. The human full-length SSTRs and mutants were cloned into the pcDNA3.1+ vector with a HA signal sequence followed by a Flag tag at the N-terminus. HEK293 cells (ATCC, CRL-1573) were seeded into 6-well microplates at a density of 1.0 × 10^6 cells/well and cultured for 24 h at 37 °C with 5% CO2. Cells were then co-transfected with SSTR wild-type or mutants and GloSensor plasmids. After 24 h of transfection, the cells were dissociated with TrypLE™ Express Enzyme (1X) (Thermo Fisher Scientific) and collected by centrifugation at 500 × g for 5 min. Then the collected cells were suspended in Hank’s balanced salt solution [HBSS (Thermo Fisher Scientific)] supplemented with […] (YEASEN), and then the suspension cells were seeded into 96-well plates with 90 μl/well. After incubating at room temperature for 40 min, 5 μM forskolin and ligands diluted in HBSS were added to each well and the plates were incubated at room temperature for 15 min. […] were measured using the Synergy H1 microplate reader (BioTek) and the data presented are means of at least three independent experiments.

The target of experiment [4] is T2, SSTR2 mutants (Homo sapiens, UniProt P30874, I195A).
T2 construct: The human full-length SSTRs and mutants were cloned into the pcDNA3.1+ vector; expressed in transfected cells; host or cells: HEK293 (ATCC, CRL-1573)
T2 sequence (P30874 whole entry I195A): as the sequence (P30874 whole entry R140A) above, with A140R, I195A counted along it
The experiment is described as above. The experiment is classed as cell-based. On the set-up: Best-fit Bottom, cAMP inhibition / Best-fit Top, cAMP inhibition / Span, cAMP inhibition / Bottom (best-fit value) / Top (best-fit value) / Span (best-fit value) / Span (best-fit) / Bottom (best-fit) / Top (best-fit) / Best-fit Bottom / Best-fit Top / Best-fit Span / Top / Span: scale not given here. Particulars: I195A, best-fit, runs 1-3. As for the experimental part:
as §1

In experiment [5] the target is T3, SSTR2 mutants (Homo sapiens, UniProt P30874, Y50A).
T3 construct: The human full-length SSTRs and mutants were cloned into the pcDNA3.1+ vector; expressed in transfected cells; host or cells: HEK293 (ATCC, CRL-1573)
T3 sequence (P30874 whole entry Y50A): as the sequence (P30874 whole entry R140A) above, with Y50A, A140R counted along it
The description is as above. The format is cell-based. Also noted: Best-fit Bottom, cAMP inhibition / Best-fit Top, cAMP inhibition / Span, cAMP inhibition / Bottom (best-fit value) / Top (best-fit value) / Span (best-fit value) / Span (best-fit) / Bottom (best-fit) / Top (best-fit) / Best-fit Bottom / Best-fit Top / Best-fit Span / Top / Span: scale not given here. Particulars: Y50A, best-fit, runs 1-3. As for the experimental part:
as §1

The target in experiment [6] is SSTR2 mutants (Homo sapiens, UniProt P30874). Described as above. The format is cell-based. On the set-up: Best-fit Bottom, cAMP inhibition / Best-fit Top, cAMP inhibition / Span, cAMP inhibition / Bottom (best-fit value) / Top (best-fit value) / Span (best-fit value) / Span (best-fit) / Bottom (best-fit) / Top (best-fit) / Best-fit Bottom / Best-fit Top / Best-fit Span / Top / Span: scale not given here. On the procedure: as §1
Chain of SSTR2 mutants (Homo sapiens, UniProt P30874) (P30874 whole entry Y205R): as the sequence (P30874 whole entry R140A) above, with A140R, Y205R counted along it

Experiment [7] addresses T4, SSTR2 mutants (Homo sapiens, UniProt P30874, T194A).
T4 construct: The human full-length SSTRs and mutants were cloned into the pcDNA3.1+ vector; expressed in transfected cells; host or cells: HEK293 (ATCC, CRL-1573)
The experiment is described as above. The experiment is classed as cell-based. Also noted: Best-fit Bottom, cAMP inhibition / Best-fit Top, cAMP inhibition / Span, cAMP inhibition / Bottom (best-fit value) / Top (best-fit value) / Span (best-fit value) / Span (best-fit) / Bottom (best-fit) / Top (best-fit) / Best-fit Bottom / Best-fit Top / Best-fit Span / Top / Span: scale not given here. Particulars: T194A, best-fit, runs 1-3. As for the experimental part: as §1

For a further experiment, the system named is SSTR1–5. The experiment is described as follows: Gi signaling of SSTR1–5, cAMP inhibition, HEK293. The format is cell-based, human. Particulars: SSTR2 versus other SSTRs. As for the experimental part: as §1, with “HEK293 cells (ATCC, CRL-1573) were seeded into 6-well microplates at a density of 1.0 × 10^6 cells/well and cultured for 24 h at 37 °C with 5% CO2.” left out

Structures are written as SMILES. Values joined by “and” are separate entries in the source; they are usually repeats but may differ in a detail not shown here. Identical values can stand only once. “Also recorded” adds a separate entry of the source.

T4 sequence (P30874 whole entry T194A): as the sequence (P30874 whole entry R140A) above, with A140R, T194A counted along it

Consider `C[C@@H](O)[C@@H]1NC(=O)[C@H](CCCCN)NC(=O)[C@@H](Cc2c[nH]c3ccccc23)NC(=O)[C@H](Cc2ccccc2)NC(=O)[C@@H](NC(=O)[C@H](N)Cc2ccccc2)CSSC[C@@H](C(=O)N[C@H](CO)[C@@H](C)O)NC1=O` [octreotide], for which, in the experiment with SSTR2 Y302A mutant, the Binding to mutant entry was “nearly abolished the binding”. For the same molecule, in the experiment with acromegalic patients, the “Acromegalic patients who do not respond well” value was ~ 30% and the “SSTR2 expression level during administration” value is “down-regulated”.
Turning to `N#Cc1cccc(-c2ccc3ncc(-c4cc(F)cc(F)c4)c(N4CCC(N)CC4)c3c2)c1O` [paltusotine], the 50% effective concentration (EC50) (in general, the concentration needed to bring the measured effect to its halfway point) on SSTR2 mutants [1] was 7.8 ± 1.47 nM; at SSTR2 mutants [2], 8.13 ± 1.64 nM; on SSTR2 mutants [6] (EC50, D295F, run 1), 0.324 nM; at SSTR2 mutants [6] (EC50, D295F, run 2), 0.205 nM; at SSTR2 mutants [6] (EC50, D295F, run 3) it was 1.56 nM; at SSTR2 mutants [6] (EC50, F294Y, run 1), 0.735 nM. Moreover, the EC50 worked out at 0.676 nM at SSTR2 mutants [6] (EC50, F294Y, run 3); 0.344 nM at SSTR2 mutants [6] (EC50, Y205R, run 1); 0.237 nM on SSTR2 mutants [6] (EC50, Y205R, run 2). The Span on SSTR2 mutants [3] is 97 and 104.2 and 101.2; on SSTR2 mutants [4] it was 93.79 and 93.25 and 119.7; at SSTR2 mutants [5] it was 121 and 122.3; at SSTR2 mutants [7], 81 and 79.63 and 75.68. Moreover, the Top at SSTR2 mutants [3] was 103.3 and 108.8 and 111.2; on SSTR2 mutants [4] it was 101.8 and 93.82 and 123; on SSTR2 mutants [5], 113.5 and 115.2 and 115.4; on SSTR2 mutants [7], 82.51 and 80.87 and 82.26. Further, the Subtype selectivity entry with SSTR1–5 is “highly selective agonist of SSTR2 relative to other SSTR subtypes; also recorded: more potent selectivity for SSTR2; also recorded: higher selectivity and efficacy towards SSTR2 relative to other group 2 SSTRs”.

Values taken from article PMC9944328 (Nature Communications, 2023).
